From paper PMC5104457, “ATP-Competitive MLKL Binders Have No Functional Impact on Necroptosis” (PLoS ONE, 2016)
Entries after “also recorded” stand apart in the source; their conditions may differ.

Tests used:
[1] = target: T1, kinase domain of RIPK1 (Homo sapiens, UniProt Q13546); assay: Differential scanning fluorimetry (thermal shift), RIPK1 kinase domain; assay type: binding; settings: 10 μM compound, 1 μM protein, average of triplicates
T1 construct: The kinase domain of RIPK1; made in house
T1 sequence (Q13546 17-289 limits assumed): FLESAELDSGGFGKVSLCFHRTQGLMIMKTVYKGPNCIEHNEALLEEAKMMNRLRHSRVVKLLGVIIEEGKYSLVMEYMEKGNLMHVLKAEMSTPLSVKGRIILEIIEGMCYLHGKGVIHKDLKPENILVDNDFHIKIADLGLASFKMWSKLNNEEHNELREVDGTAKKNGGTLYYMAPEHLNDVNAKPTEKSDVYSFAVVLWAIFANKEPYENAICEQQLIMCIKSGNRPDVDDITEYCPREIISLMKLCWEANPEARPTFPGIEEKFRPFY
Method: (§1) To measure the thermal stabilization of the proteins upon compound binding we employed differential scanning fluorimetry (DSF). The kinase domain of RIPK1 and the N-terminal domain HSP90α were expressed and purified as previously described. The pseudokinase MLKL-1, RIPK1 and Hsp90 were melted at 1μM final concentrations in 25mM HEPES pH 8.0, 250mM NaCl and 2.5mM DTT. Compounds were added to a final concentration of 10 μ M with a final DMSO concentration of 5%. The complexes were incubated on ice for 30 minutes. Protein Thermal Shift dye (Life Technologies) was added to 1X. The fluorescence intensities were measured using a Quantstudio real-time PCR system (Life Technologies) with excitation at 470 nm and emission at 586 nm. The samples, measured in triplicate, were heated from 25 to 85°C with a heating rate of […].

[2] = target: T2, pseudokinase MLKL-1 (Homo sapiens, UniProt Q8NB16); assay: Differential scanning fluorimetry (thermal shift), MLKL pseudokinase domain; assay type: binding; settings: 10 μM compound, 1 μM protein, average of triplicates; read-out: MLKL Pseudo-kinase thermal shift at 10 μM
T2 construct: sub-cloning residues 191 to 471 of the pseudokinase domain of human MLKL cDNA; His6 (thrombin cleavable) (N); made in house; host or cells: Escherichia coli BL21 (DE3)
T2 sequence (Q8NB16 191-471): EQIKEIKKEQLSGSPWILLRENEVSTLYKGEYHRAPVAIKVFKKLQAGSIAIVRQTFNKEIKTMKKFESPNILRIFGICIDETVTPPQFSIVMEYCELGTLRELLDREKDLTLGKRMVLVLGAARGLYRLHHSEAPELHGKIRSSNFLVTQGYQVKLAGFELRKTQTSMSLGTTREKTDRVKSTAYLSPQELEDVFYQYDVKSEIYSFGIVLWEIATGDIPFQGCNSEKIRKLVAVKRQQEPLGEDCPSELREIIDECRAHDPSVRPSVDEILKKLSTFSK
Text: MLKL-1 was constructed by sub-cloning residues 191 to 471 of the pseudokinase domain of human MLKL cDNA into a pET15b vector with a thrombin cleavable N-terminal six histidine fusion tag (His-MLKL-1). MLKL-2 had the same protein boundaries and fusion tag system as MLKL-1 but the dual mutations E366A and K367A were introduced using site directed mutagenesis and was expressed in the same vector (His-MLKL-2).
as §1

[3] = system: RIPK3 phosphorylation of MLKL in 293T cells; assay: MLKL phosphorylation assay (MSD), RIPK3-dependent phospho Ser358; assay type: cell-based, human; settings: 293T cells with GFP-MLKL and RIPK3-mCherry, 30 min compound, normalized to DMSO
Method: The cDNA clones of human MLKL (RC213152) and human RIPK3 (RC209549) were purchased from Origene. To generate GFP-MLKL and RIPK3-mCherry, coding sequences of the corresponding cDNA sequences were PCR amplified and cloned into Biogen’s mammalian expression vector.
293T cells grown in 10 cm plates were transfected with GFP-MLKL alone or both GFP-MLKL and RIPK3-mCherry plasmids. After 24 hours, cells were harvested and replated into poly D lysine coated 96W plate with 20,000 cells/ml. Four hours later, cells were treated with MLKL compounds for 30 min and incubated at 37°C. Thirty minutes later, the media was removed and cells were lysed in 150μl of Cell lysis buffer (Cell Signaling, MA) containing both protease and phosphatase inhibitors. The lysates were transferred to 96 well MSD plates (Meso Scale Discovery, MD) that were precoated with anti-mouse MLKL antibody H00197259-M02, 3B2, Novus Biologicals, CO), and incubated overnight at 4°C. After washing the plates three times with 1x MSD wash buffer (50mM TRIS-HCl, 150mM NaCl, 0.02% Tween 20, pH7.5), 100 μl of 0.5μg/ml of rabbit-anti-MLKL phospho Ser358 (Abcam AB187091) was added to each well. The plates were incubated for 2 hours at room temperature. After three washes with MSD wash buffer, 100 μ l of 0.5ug/ml of SULFO-tag labeled anti-rabbit IgG was added to each well and incubated for 1 hour at room temperature. After three washes, 1x Read bufferT (Meso Scale Discovery, MD) was added and the electrochemiluminescence (ECL) was measured with a MSD Sector Imager 600.

[4] = system: FADD (-/-) Jurkat cells; assay: Necroptosis assay: rescue from TNF-α induced cell death; assay type: cell-based; settings: FADD deficient Jurkat cells; for IC50: TNF-α 15 ng/ml overnight, average of duplicates, read-out: Necroptosis cell IC50
Method: Necroptosis assays were performed at Charles River Laboratories (United Kingdom) and at Biogen. […] On the day of the experiment, cells were counted using Nexcelom Bioscience Cell Meter Vision and pelleted by centrifugation. Cell pellets were resuspended in fresh medium at 500,000 cells per mL and transferred to assay-ready compound plates prepared in 384-well white TC plates (Greiner #781080) at 20μl cells per well. Cells and compound were incubated at room temperature for 30 minutes followed by +/- stimulation with 15ng/ml TNF-α (Cell signalling Technologies #8902LF) overnight at 37°C. In the morning, plates were equilibrated to room temperature for 30 minutes and 25μl of CellTiter-Glow (CellTiter-Glo 2.0 Assay, Promega # G9243) diluted 1:4 in PBS was added to each well and allowed to incubate for 10 minutes at room temperature. Luminescence was read on an Envision plate reader (Perkin Elmer).
TNF-α added to these cells induces necroptosis or cell death. The term “Rescue” refers to the ability of a compound to prevent loss of cell viability in the presence of TNF. Definitions of the presence or absence of compound or TNF stimulation in the wells that were used to calculate degree of rescue or viability is defined in Table 1.
100% percent rescue is defined as the value of the “no TNF” wells minus the value of wells treated with “TNF”.
Percent Rescue is then the ratio of the intensity value of the experimental “well” minus the value of “TNF” treated wells divided by the overall difference between the value of “no TNF” treated wells and the value of “TNF” treated wells.
%rescue=((well - TNF)/(no TNF - TNF))x100

[5] = target: T3, RIPK1 kinase domain (Homo sapiens, UniProt Q13546); assay: ATP-competitive probe displacement assay, RIPK1; assay type: binding; settings: for Kd: average of duplicates; for weaker potency to RIPK1 relative to MLKL: RIPK1 KD versus MLKL KD
T3 construct: purchased DiscoverX
T3 sequence (Q13546 17-289 limits assumed): T1 sequence (Q13546 17-289 limits assumed)
Method: (§2) Compound binding constants (KDs) were determined at DiscoverX using their KINOMEscan assay platform. This competition binding assay was previously described in Karaman et al. (2008)[18]. Briefly, full length MLKL was expressed in HEK-293 cells as a fusion with an NFκB DNA binding domain and subsequently tagged with a qPCR detection amplicon via interaction with NFκB. […] Twenty microliters of binding reactions were carried out in 384-well polypropylene plates for 1 hour at room temperature. Beads were subsequently washed and resuspended in elution buffer for 30 minutes at room temperature with shaking. The concentration of MLKL in the eluates was measured by qPCR and compound binding constants were calculated using a standard dose-response curve.
(§3) A similar approach was used to measure binding affinities for RIPK1 and RIPK3 kinase domains.

[6] = target: T4, RIPK3 kinase domain (Homo sapiens, UniProt Q9Y572); assay: ATP-competitive probe displacement assay, RIPK3; assay type: binding
T4 construct: purchased DiscoverX
Method: as §2, §3

[7] = target: T5, full length MLKL (Homo sapiens, UniProt Q8NB16); assay: KINOMEscan ATP-competitive probe displacement (competition binding) assay, MLKL; settings: for Kd: average of duplicates
T5 construct: purchased DiscoverX (KINOMEscan service); host or cells: HEK-293
T5 sequence (Q8NB16 1-471): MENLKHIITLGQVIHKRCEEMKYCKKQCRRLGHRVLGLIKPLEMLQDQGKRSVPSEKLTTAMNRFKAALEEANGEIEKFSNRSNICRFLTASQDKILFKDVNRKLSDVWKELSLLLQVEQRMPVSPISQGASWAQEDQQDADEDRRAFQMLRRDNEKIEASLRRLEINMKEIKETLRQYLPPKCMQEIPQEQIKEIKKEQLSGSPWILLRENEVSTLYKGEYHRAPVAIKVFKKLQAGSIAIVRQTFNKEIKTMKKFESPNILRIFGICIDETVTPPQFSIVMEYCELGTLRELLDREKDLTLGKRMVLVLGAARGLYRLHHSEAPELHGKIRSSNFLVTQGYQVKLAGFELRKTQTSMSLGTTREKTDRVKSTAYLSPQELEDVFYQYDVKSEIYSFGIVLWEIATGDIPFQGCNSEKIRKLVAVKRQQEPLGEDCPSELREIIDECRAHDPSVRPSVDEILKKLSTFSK
Method: as §2, with “This competition binding assay was previously described in Karaman et al. (2008)[18].” left out
as §3

[8] = system: FADD (-/-) Jurkat cells; assay: Viability experiment in the absence of TNF; assay type: cell-based; settings: FADD deficient Jurkat cells, no TNF, Fig 3F
Method: Necroptosis assays were performed at Charles River Laboratories (United Kingdom) and at Biogen. […] On the day of the experiment, cells were counted using Nexcelom Bioscience Cell Meter Vision and pelleted by centrifugation. Cell pellets were resuspended in fresh medium at 500,000 cells per mL and transferred to assay-ready compound plates prepared in 384-well white TC plates (Greiner #781080) at 20μl cells per well. Cells and compound were incubated at room temperature for 30 minutes followed by +/- stimulation with 15ng/ml TNF-α (Cell signalling Technologies #8902LF) overnight at 37°C. In the morning, plates were equilibrated to room temperature for 30 minutes and 25μl of CellTiter-Glow (CellTiter-Glo 2.0 Assay, Promega # G9243) diluted 1:4 in PBS was added to each well and allowed to incubate for 10 minutes at room temperature. Luminescence was read on an Envision plate reader (Perkin Elmer). Percent viability values are calculated from separate dose response experiments identical to the percent rescue experiment except that no TNF is added to the cells. This assay is intended to identify compounds that not only don’t rescue, but are toxic themselves. 100% Viability is defined as the intensity value of the “no TNF” wells, cell treated with neither compound nor TNF. […]

T4 sequence (Q9Y572 21-287 limits assumed): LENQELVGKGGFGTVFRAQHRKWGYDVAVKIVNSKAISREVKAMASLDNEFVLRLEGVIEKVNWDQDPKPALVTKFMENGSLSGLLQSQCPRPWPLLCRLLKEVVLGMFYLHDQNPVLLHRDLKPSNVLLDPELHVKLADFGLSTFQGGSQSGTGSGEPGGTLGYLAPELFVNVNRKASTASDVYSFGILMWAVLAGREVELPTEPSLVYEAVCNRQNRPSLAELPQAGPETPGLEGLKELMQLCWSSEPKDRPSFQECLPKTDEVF

Compound | ΔTm at 10 µM [1] | ΔTm at 10 µM [2] | Kd [5] | weaker potency to RIPK1 relative to MLKL [5] | Kd [7] | effect on RIPK3-dependent phosphorylation of MLKL (phospho Ser358, in words) [3] | IC50 ([4]; Homo sapiens) | other results
CC(C)S(=O)(=O)c1ccc2nccc(Nc3ccc4scnc4c3)c2c1 [GSK872] |  |  |  |  |  | completely inhibited; also recorded: inhibits phosphorylation of MLKL |  | 
CN1C(=O)C(Cc2c[nH]c3ccccc23)NC1=S (stereo not shown) [Nec1s, Necrostatin, reference compound] |  |  |  |  |  |  |  | effect on cell viability in the absence of TNF stimulation (in words) [8]: does not effect cell viability; EC50 ([4]; Homo sapiens, TNF stimulation): 500 nM

Further lines, with some results ahead:

ΔTm at 10 µM [1] | ΔTm at 10 µM [2] | Kd [5] | weaker potency to RIPK1 relative to MLKL [5] | Kd [7] | Compound | effect on RIPK3-dependent phosphorylation of MLKL (phospho Ser358, in words) [3] | IC50 ([4]; Homo sapiens) | other results
0.75 °C | 5.63 °C |  |  |  | C[C@@H](Oc1cc(-c2cnn(C3CCNCC3)c2)cnc1N)c1c(Cl)ccc(F)c1Cl [Crizontinib, reference compound] | does not impact its phosphorylation | > 40000 nM | rescue of cells from necroptosis (in words) ([4]; dose-response, Fig 3): does not rescue cells from necroptosis
0.15 °C | 0.67 °C | > 30000 nM |  |  | COc1nccnc1NS(=O)(=O)c1ccc(NC(=O)/C=C/c2ccc([N+](=O)[O-])s2)cc1 [NSA, Necrosulfonamide, reference compound] |  | 200 nM | displacement of the ATP probe from / binding to RIPK1 (in words) [5]: not to displace the ATP probe; displacement of the ATP probe from / binding to RIPK3 (in words) [6]: not to displace the ATP probe; Kd ([6]; average of duplicates): > 30000 nM; displacement of the ATP probe from MLKL (in words) ([7]; data not shown): not to displace the ATP probe
0 °C | 2.93 °C | > 10000 nM | at least 10 fold | 780 nM | CC(=O)Nc1ccc(N(C)c2ccnc(Nc3cccc(S(N)(=O)=O)c3)n2)cc1 [cpd 2] |  | > 40000 nM | 
0.31 °C | 1.57 °C | > 10000 nM | at least 10 fold | 880 nM | CN(c1ccc(N)cc1)c1ccnc(Nc2cccc(S(N)(=O)=O)c2)n1 [cpd 3] |  | > 40000 nM | 
